Assay results as given in patent publication US11130960B2, “Methods for conferring or enhancing herbicide resistance on plants and/or alga with protoporphyrinogen oxidase variants” (FARM HANNONG CO., LTD., priority 2014, dated 2021).

Columns and labels:
Assay in all cases: Seed germination / growth on ½ MS medium containing herbicide
[1] = test system: wild-type Arabidopsis thaliana (Col-0); type: in vivo; details: ½ MS medium with 70 nM Tiafenacil, 50 uM glufosinate, or 70 nM Tiafenacil and 50 uM glufosinate
Description: (§1) To examine tiafenacil resistance of T2 generation seeds which survived under treatment of 1 μM tiafenacil, among the CyPPO2 and CyPPO8 transformants, Arabidopsis thaliana seeds were sown in ½ MS medium (1.125 g/L of MS salt, 10 g/L of sucrose, 7 g/L of Agar) containing 70 nM tiafenacil. […] Therefore, survival under 70 nM tiafenacil means that a plant has resistance against tiafenacil.
(§2) In Arabidopsis thaliana transformant including CyPPO2 or CyPPO8 gene, which was obtained by transformation using the plant transformation vector prepared in Example 6, the PPO activity-inhibiting herbicide-resistant gene and glufosinate-resistant gene are expressed at the same time. Therefore, it was examined whether cross-treatment of Arabidopsis thaliana transformant with two herbicides, namely, PPO activity-inhibiting herbicide and glufosinate is effective for weed control. To this end, seeds of CyPPO2 and BAR gene-inserted Arabidopsis thaliana transformant, or CyPPO8 and BAR gene-inserted Arabidopsis thaliana transformant were sterilized and treated at low temperature of 4° C. for 2 days. The seeds were sown in a ½ MS medium (Duchefa), a ½MS medium containing 70 nM Tiafenacil, a ½MS medium containing 50 uM glufosinate, or a ½MS medium containing 70 nM Tiafenacil and 50 uM glufosinate, and grown at 23° C. under 16 hour-light/8 hour-dark conditions for 7-14 days. Arabidopsis thaliana on the herbicide media was CyPPO2 or CyPPO8-transformed seed and the wild-type Col0 as a control, respectively. The transformant and the control were cultured on herbicide media. After 2 weeks, they were examined.
(§3) In Example 9, it was confirmed that Arabidopsis thaliana transformant prepared in the present invention has resistance against the two PPO-based herbicides, Tiafenacil and Saflufenacil at the same time, and therefore, it was tested whether the cross-treatment of Arabidopsis thaliana transformant with Tiafenacil and Saflufenacil is effective for weed control. To this end, seeds of CyPPO2 or CyPPO8 gene-inserted Arabidopsis thaliana transformant were sterilized and treated at low temperature of 4° C. for 2 days. The seeds were sown in a ½ MS medium, a ½MS medium containing 70 nM Tiafenacil, a ½MS medium containing 70 nM Saflufenacil, or a ½MS medium containing 35 nM Tiafenacil and 35 nM Saflufenacil, and grown at 23° C. under 16 hour-light/8 hour-dark conditions for 7-14 days. Arabidopsis thaliana on the herbicide media was CyPPO2 or CyPPO8-transformed seed and the wild-type Col0 as a control, respectively. The transformant and the control were cultured on herbicide media. After 2 weeks, they were examined.

CyPPO2 transformants = type: in vivo, Arabidopsis thaliana; details: CyPPO2 and BAR gene-inserted; ½ MS medium with 70 nM Tiafenacil, 50 uM glufosinate, or both
Description: as §1, §2, §3

CyPPO8 transformants = type: in vivo, Arabidopsis thaliana; details: CyPPO8 and BAR gene-inserted; ½ MS medium with 70 nM Tiafenacil, 50 uM glufosinate, or both
Description: as §1, §2, §3

CP(=O)(O)CCC(N)C(=O)O (stereo not drawn) [glufosinate]
germination / growth on herbicide medium after 2 weeks [1]: not germinated | germination / growth on herbicide medium after 2 weeks (CyPPO2 transformants): normally grew | germination / growth on herbicide medium after 2 weeks (CyPPO8 transformants): normally grew
